From BindingDB's records for doi:10.1016/j.bmcl.2005.07.021 (Johnson & Johnson Pharmaceutical Research and Development, 2005)

Target: Glycogen phosphorylase, muscle form (Oryctolagus cuniculus) (UniProt P00489)
Experiment: Inhibitory concentration against glycogen phosphorylase of rabbit muscle

Chain of Glycogen phosphorylase, muscle form (Oryctolagus cuniculus) (P00489 whole entry, looked up): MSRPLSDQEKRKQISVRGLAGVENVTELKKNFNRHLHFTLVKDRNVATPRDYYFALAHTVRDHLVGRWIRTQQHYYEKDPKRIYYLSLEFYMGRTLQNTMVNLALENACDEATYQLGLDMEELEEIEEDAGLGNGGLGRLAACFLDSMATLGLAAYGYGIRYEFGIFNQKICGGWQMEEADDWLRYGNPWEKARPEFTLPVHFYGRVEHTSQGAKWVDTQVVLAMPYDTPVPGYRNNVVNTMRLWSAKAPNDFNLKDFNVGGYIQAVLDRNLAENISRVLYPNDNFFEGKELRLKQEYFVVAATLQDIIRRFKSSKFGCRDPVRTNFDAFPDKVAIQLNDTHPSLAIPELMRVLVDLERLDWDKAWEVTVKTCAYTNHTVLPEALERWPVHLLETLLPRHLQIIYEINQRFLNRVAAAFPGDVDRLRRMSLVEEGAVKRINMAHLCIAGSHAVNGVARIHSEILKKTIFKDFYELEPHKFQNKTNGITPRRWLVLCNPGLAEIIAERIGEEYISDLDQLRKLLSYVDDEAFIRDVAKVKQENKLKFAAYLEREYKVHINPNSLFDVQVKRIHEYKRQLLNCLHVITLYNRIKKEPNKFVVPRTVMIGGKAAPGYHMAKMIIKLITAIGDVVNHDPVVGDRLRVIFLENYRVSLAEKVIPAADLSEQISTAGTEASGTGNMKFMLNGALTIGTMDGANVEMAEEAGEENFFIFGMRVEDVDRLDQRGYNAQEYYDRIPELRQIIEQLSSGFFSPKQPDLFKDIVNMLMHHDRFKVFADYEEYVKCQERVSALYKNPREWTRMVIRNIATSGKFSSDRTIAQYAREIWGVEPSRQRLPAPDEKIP

CN(c1ccc(C(=O)Nc2ccon2)cc1)c1nc2ccccc2n(C)c1=O gave an IC50 of over 10000 nM.

For Cn1c(=O)c(Nc2ccc(-c3ccc[nH]3)cc2)nc2ccccc21 [1-Methyl-3-[4-(1H-pyrrol-2-yl)-phenylamino]-1H-quinoxalin-2-one], the IC50 was 2500 nM.

For Cn1c(=O)c(Nc2ccc(NC(=O)c3ccc[nH]3)cc2)nc2ccccc21 [1H-Pyrrole-2-carboxylic acid [4-(4-methyl-3-oxo-3,4-dihydro-quinoxalin-2-ylamino)-phenyl]-amide], the IC50 was over 10000 nM.

Work on Cn1c(=O)c(Nc2ccc(-c3ccoc3)cc2)nc2ccccc21 [3-(4-Furan-3-yl-phenylamino)-1-methyl-1H-quinoxalin-2-one] yielded an IC50 of 5000 nM.

Molecule O=c1[nH]c2ccccc2nc1Nc1ccccc1 [3-Phenylamino-1H-quinoxalin-2-one] has an IC50 of 2500 nM.

CC(C)n1c(=O)c(Nc2ccc(C(=O)NCc3cccs3)cc2)nc2ccccc21 [4-(4-Isopropyl-3-oxo-3,4-dihydro-quinoxalin-2-ylamino)-N-thiophen-2-ylmethyl-benzamide] gave an IC50 of over 10000 nM.

For Cn1c(=O)c(Nc2ccc(C(=O)NCCc3cccs3)cc2)nc2ccccc21 [4-(4-Methyl-3-oxo-3,4-dihydro-quinoxalin-2-ylamino)-N-(2-thiophen-2-yl-ethyl)-benzamide], the IC50 was over 10000 nM.

In the case of CN(C)CCn1c(=O)c(Nc2ccc(C(=O)NCc3cccs3)cc2)nc2ccccc21 [4-[4-(2-Dimethylamino-ethyl)-3-oxo-3,4-dihydro-quinoxalin-2-ylamino]-N-thiophen-2-ylmethyl-benzamide], the IC50 is reported as 710 nM.

O=C(NCc1cccs1)c1ccc(Nc2nc3ccccc3n(CCO)c2=O)cc1 [4-[4-(2-Hydroxy-ethyl)-3-oxo-3,4-dihydro-quinoxalin-2-ylamino]-N-thiophen-2-ylmethyl-benzamide] showed an IC50 of 320 nM.

For O=C(O)Cn1c(=O)c(Nc2ccc(C(=O)NCc3cccs3)cc2)nc2ccccc21 [(2-Oxo-3-{4-[(thiophen-2-ylmethyl)-carbamoyl]-phenylamino}-2H-quinoxalin-1-yl)-acetic acid], the IC50 was 5700 nM.

In the case of Cn1c(=O)c(Nc2ccc(NC(=O)c3ccco3)cc2)nc2ccccc21 [Furan-2-carboxylic acid [4-(4-methyl-3-oxo-3,4-dihydro-quinoxalin-2-ylamino)-phenyl]-amide], the IC50 is reported as 2500 nM.

Work on Cn1c(=O)c(Nc2cccc(NC(=O)c3ccno3)c2)nc2ccccc21 [Isoxazole-5-carboxylic acid [3-(4-methyl-3-oxo-3,4-dihydro-quinoxalin-2-ylamino)-phenyl]-amide] yielded an IC50 of over 10000 nM.
